Laboratory results reported in patent US7968604B2, “Pharmaceutical composition for prevention and treatment of drug or alcohol addiction or bipolar disorder using sodium phenylbutyrate” (priority 2005, dated 2011).

Experiments:
Type in all cases: in vivo, Sprague-Dawley rats
[1] = tested on: amphetamine-induced behavioral sensitization; assay: amphetamine-induced behavioral sensitization (chronic) in rats
Description: In order to examine effects of a pharmaceutical composition for prevention and treatment of drug or alcohol addiction or bipolar disorder containing sodium phenylbutyrate (PBA) in accordance with the present invention, the following animal experiments were carried out using Sprague-Dawley rats, weighing 250-275 g (upon arrival), (Samtaco Animal Breeding Company, Osan, Korea). A bank of 12 activity boxes was used to measure locomotor activity of animals (Kim & Vezina, 1998). Each box (22×43×33 cm) estimated locomotor activity from photo beam interruptions. Rats were placed in the activity boxes for a 1-hour habituation period. Then, these rats were administered with the respective dosages of the pharmaceutical composition and were immediately placed again in the activity boxes, and locomotor activity and rearing activity of rats were measured for additional 2 hours. Specifically, a computer was adapted to count locomotion of rats via photo beams installed on the top/bottom and right/left of the activity boxes, and such locomotion behavior of rats was confirmed for two hours. Rearing activity was also measured by counting upward/downward motion of rats via photo beams installed in the activity boxes. […]

[2] = tested on: cocaine-induced locomotor activity and rearing; assay: cocaine-induced (acute) locomotor activity and rearing in rats
Description: In order to examine effects of a pharmaceutical composition for prevention and treatment of drug or alcohol addiction or bipolar disorder containing sodium phenylbutyrate (PBA) in accordance with the present invention, the following animal experiments were carried out using Sprague-Dawley rats, weighing 250-275 g (upon arrival), (Samtaco Animal Breeding Company, Osan, Korea).
A bank of 12 activity boxes was used to measure locomotor activity of animals (Kim & Vezina, 1998). Each box (22×43×33 cm) estimated locomotor activity from photo beam interruptions. Rats were placed in the activity boxes for a 1-hour habituation period. Then, these rats were administered with the respective dosages of the pharmaceutical composition and were immediately placed again in the activity boxes, and locomotor activity and rearing activity of rats were measured for additional 2 hours. […] Rearing activity was also measured by counting upward/downward motion of rats via photo beams installed in the activity boxes. […]
Different concentrations (0.1, 1.0, 5.0 and 10.0 mg/kg) of sodium phenylbutyrate were intraperitoneally injected (acute) alone or in combination with cocaine (15 mg/kg) into rats, and locomotor activity and rearing of animals were measured for 2 hours. […]

[3] = tested on: amphetamine-induced locomotor activity; assay: amphetamine-induced (acute) locomotor activity in rats
Description: In order to examine effects of a pharmaceutical composition for prevention and treatment of drug or alcohol addiction or bipolar disorder containing sodium phenylbutyrate (PBA) in accordance with the present invention, the following animal experiments were carried out using Sprague-Dawley rats, weighing 250-275 g (upon arrival), (Samtaco Animal Breeding Company, Osan, Korea). A bank of 12 activity boxes was used to measure locomotor activity of animals (Kim & Vezina, 1998). Each box (22×43×33 cm) estimated locomotor activity from photo beam interruptions. Rats were placed in the activity boxes for a 1-hour habituation period. Then, these rats were administered with the respective dosages of the pharmaceutical composition and were immediately placed again in the activity boxes, and locomotor activity and rearing activity of rats were measured for additional 2 hours. […] Rearing activity was also measured by counting upward/downward motion of rats via photo beams installed in the activity boxes. […] Similar to Example 1, different concentrations (0.1, 1.0 and 10.0 mg/kg) of sodium phenylbutyrate were intraperitoneally injected (acute) alone or in combination with amphetamine (1.5 mg/kg) into rats, and locomotor activity of animals was measured for 2 hours. […]

[4] = tested on: locomotor activity; assay: locomotor activity after sodium phenylbutyrate alone daily for 7 days; conditions: rats, 0.1 and 1.0 mg/kg i.p. once a day for 7 days, measured day 1 and day 7
Description: In order to examine effects of a pharmaceutical composition for prevention and treatment of drug or alcohol addiction or bipolar disorder containing sodium phenylbutyrate (PBA) in accordance with the present invention, the following animal experiments were carried out using Sprague-Dawley rats, weighing 250-275 g (upon arrival), (Samtaco Animal Breeding Company, Osan, Korea). A bank of 12 activity boxes was used to measure locomotor activity of animals (Kim & Vezina, 1998). Each box (22×43×33 cm) estimated locomotor activity from photo beam interruptions. Rats were placed in the activity boxes for a 1-hour habituation period. Then, these rats were administered with the respective dosages of the pharmaceutical composition and were immediately placed again in the activity boxes, and locomotor activity and rearing activity of rats were measured for additional 2 hours. Specifically, a computer was adapted to count locomotion of rats via photo beams installed on the top/bottom and right/left of the activity boxes, and such locomotion behavior of rats was confirmed for two hours. Rearing activity was also measured by counting upward/downward motion of rats via photo beams installed in the activity boxes. […] On day 1 and day 7 of drug administration, locomotor activity of animals was measured. […]

## O=C(O)CCCc1ccccc1 [sodium phenylbutyrate]
[1]; rats, 0.1, 1.0 and 10.0 mg/kg with amphetamine 1.5 mg/kg four times at 2 to 3 day intervals, one-week withdrawal, amphetamine challenge
  effect on amphetamine-induced behavioral sensitization: significant blocking effects against amphetamine-induced behavioral sensitization
[1]; rats, repeated co-administration with amphetamine 1.5 mg/kg
  dose range at which blocking of behavioral sensitization was particularly strong: 0.1 to 1.0 mg/kg
[2]; i.p. acute, 0.1, 1.0, 5.0 and 10.0 mg/kg with cocaine 15 mg/kg, measured 2 hours
  effect on increase in cocaine-induced locomotor activity and rearing: reduce an increase in cocaine-induced locomotor activity and rearing of rats in a dose-dependent manner
[2]; i.p. acute, with cocaine 15 mg/kg
  dose at which effects on cocaine-induced locomotor activity and rearing were greatest: 1.0 mg/kg
[3]; i.p. acute, 0.1, 1.0 and 10.0 mg/kg with amphetamine 1.5 mg/kg, measured 2 hours
  effect on increase in amphetamine-induced locomotor activity: decrease an increase in amphetamine-induced locomotor activity
[3]; i.p. acute, with amphetamine 1.5 mg/kg
  dose range at which effects on amphetamine-induced locomotor activity were similarly exhibited: 0.1 to 10.0 mg/kg
[4]
  changes in locomotor activity on administration of sodium phenylbutyrate alone: does not result in any significant changes in locomotor activity of animals
